# From ChEMBL document CHEMBL3046192, “Development of new fungicides against Magnaporthe grisea: synthesis and biological activity of pyrazolo[3,4-d][1,3]thiazine, pyrazolo[1,5-c][1,3,5]thiadiazine, and pyrazolo[3,4-d]pyrimidine derivatives” (J Agric Food Chem, 2002)
# Activity calls are given as the source filed them. The calls are words filed in the database; no cut-off is given here.
# Tests used:
# [1] = system: Pyricularia grisea; test: microbe, parasite or virus in culture; type: functional; settings: ATCC 64413, 120 h
# [2] = system: Pyricularia grisea; test: microbe, parasite or virus in culture; type: functional; settings: ATCC 64413, 120 h; remark: listed apart in the source
# [3] = system: Pyricularia grisea; test: microbe, parasite or virus in culture; type: functional; settings: ATCC 64413, 120 h; remark: listed apart in the source
# [4] = system: Pyricularia grisea; test: microbe, parasite or virus in culture; type: functional; settings: ATCC 64413, 120 h; remark: listed apart in the source
# [5] = system: Oryza sativa; test: Toxicity in Oryza sativa (rice) assessed as seedling growth at 1 to 10 ug/ml after 10 days; type: organism-based; settings: in vivo, 240 h
# [6] = system: Oryza sativa; test: Toxicity in Oryza sativa (rice) assessed as seedling growth at >10 ug/ml after 10 days; type: organism-based; settings: in vivo, 240 h
# [7] = system: Oryza sativa; test: Toxicity in Oryza sativa (rice) assessed as cell culture growth at 1 to 10 ug/ml after 10 days; type: organism-based; settings: 240 h
# [8] = system: Pyricularia grisea; test: Antifungal activity against Magnaporthe grisea ATCC 64413 infected rice plant assessed as growth inhibition at 1 to 10 ug/ml after 5 days; type: functional, organism-based
# [9] = system: Pyricularia grisea; test: Antifungal activity against Magnaporthe grisea ATCC 64413 assessed as depigmentation of mycelium at 200 ug/ml; type: functional, organism-based
Compound,inhibition at 50 µg/mL [1],inhibition at 200 µg/mL [2],inhibition at 100 µg/mL [3],inhibition at 10 µg/mL [4],Activity [5],Activity [6],Activity [7],Activity [8],Activity [9]
O=c1sc(-c2ccccc2)nc2cc(-c3ccccc3)nn12,15%,15%,15%,15%,–,–,–,–,–
Cc1cc2nc(-c3ccc(Cl)cc3)sc(=O)n2n1,62%,66%,66%,17%,–,–,–,–,–
Cc1nn(-c2cccc([N+](=O)[O-])c2)c2nc(C(F)(F)F)[nH]c(=S)c12,61%,95.9%,78%,32%,–,–,–,–,–
Cc1cc2nc(C(F)(F)F)sc(=S)n2n1,79.6%,93.2%,79.7%,48.4%,–,–,–,–,–
Cc1nn(-c2ccc(Cl)c(Cl)c2)c2nc(C(F)(F)F)sc(=S)c12,83.1%,100%,90.5%,57.7%,–,–,–,–,–
Cc1cc2nc(-c3ccccc3)sc(=O)n2n1,100%,100%,100%,92.4%,Non-toxic,Toxic,Non-toxic,Active,–
Cc1cc2nc(-c3ccc(Br)cc3)sc(=O)n2n1,47%,74%,58%,47%,–,–,–,–,–
Cc1n[nH]c2nc(-c3ccccc3)sc(=O)c12,24%,30%,28%,16%,–,–,–,–,–
Cc1nn(C(C)(C)C)c2nc(-c3ccccc3)sc(=O)c12,14%,19%,16%,14%,–,–,–,–,–
Cc1n[nH]c2nc(Cc3ccccc3)sc(=O)c12,57%,80%,77%,30%,–,–,–,–,–
Cc1cccc2sc3nncn3c12 [TRICYCLAZOLE],23.5%,94%,61.5%,0%,–,–,–,–,–
Cc1nn(-c2ccc(Cl)c(Cl)c2)c2nc(C(F)(F)F)[nH]c(=S)c12,91%,100%,100%,52%,–,–,–,–,–
Cc1nn(C(C)(C)C)c2nc(C(F)(F)F)sc(=S)c12,–,58.3%,42.7%,–,–,–,–,–,–
O=c1sc(-c2ccccc2)nc2ccnn12,70.2%,75.1%,73.1%,67%,–,–,–,–,–
Cc1nn(C(C)(C)C)c2nc(C(F)(F)F)[nH]c(=S)c12,31%,44%,35%,25%,–,–,–,–,–
Cc1nn(-c2ccccc2)c2nc(C(F)(F)F)sc(=S)c12,–,43.8%,29.6%,–,–,–,–,–,–
Cc1nn(C(C)(C)C)c2nc(-c3ccccc3)sc(=S)c12,16%,17%,16%,14%,–,–,–,–,–
Cc1n[nH]c2nc(-c3ccccc3)sc(=S)c12,15%,21%,17%,14%,–,–,–,–,–
Cc1nn(-c2cccc([N+](=O)[O-])c2)c2nc(C(F)(F)F)sc(=O)c12,39.6%,81.1%,54.4%,21.9%,–,–,–,–,–
Cc1nn(-c2ccccc2)c2nc(C(F)(F)F)[nH]c(=S)c12,37%,58%,55%,23%,–,–,–,–,–
Cc1cc2nc(C(F)(F)F)sc(=O)n2n1,97.9%,100%,99.5%,64.5%,–,–,–,–,–
Cc1nn(-c2cccc([N+](=O)[O-])c2)c2nc(C(F)(F)F)sc(=S)c12,89.1%,100%,91.7%,71.2%,–,–,–,–,–
Cc1n[nH]c2nc(Cc3ccccc3)sc(=S)c12,75%,77%,76%,73%,–,–,–,–,Active
